Measurements published in patent US12152048B2, “Nitroxoline prodrug and use thereof” (Jiangsu Yahong Meditech Co., Ltd., priority 2018, dated 2024).
In brackets after ≈: the same amount, converted by molar mass.

What was measured:
[1] = Determination of water solubility in phosphate buffer; type: physicochemical; conditions: for solubility at 24 h: aqueous buffer, thermodynamic from solid, phosphate buffer pH 7.4, room temperature; for water solubility compared with nitroxoline: conclusion in words
Text: Experimental instruments: 96-well filter plate (MSHVN4510 or MSHVN4550, Millipore); electronic digital display vortex mixer (MS3 Digital, IKA); multi-purpose vacuum pump (circulating water type, SHB-111, Zhengzhou Greatwall Scientific Industrial and Trade Co., Ltd.); balance (XSLT05, Mettler-Toledo); comfortable mixer (Eppendorf AG 22331 Hamburg, Eppendorf); liquid chromatography (LC-3AD, Shimadzu); mass spectrometry (API4000, Applied Biosystems, USA); sample injector (Anylytics AG System, CTC). Nitroxoline was prepared according to the method disclosed in Journal of Heterocyclic Chemistry, 1971, vol. 8, p 821 by Wisdom Pharmaceutical Co., Ltd.
Experimental process: 500 μL of phosphate buffer (pH=1.2, 4.5, 6.8 or 7.4) were added to a glass flask, to which 2 mg of compound powder were added. The flask was sealed with a cap and shaked on a mixer (VORTEX-GENIE2) at room temperature for 24 hours. The solution was subjected to vacuum filtration, and the filtrate was processed to determine the compound concentration by LC/MS/MS.

[2] = Stability in human liver microsome; conditions: 2 μM, 37° C., 30 minutes
[3] = Stability in dog liver microsome; conditions: 2 μM, 37° C., 30 minutes
[4] = Stability in mouse liver microsome; type: in vitro ADME; conditions: 2 μM, 37° C., 30 minutes
[5] = Stability in rat liver microsome; conditions: 2 μM, 37° C., 30 minutes
Protocol: Experimental instruments: thermostatic shaker (SHA-B, Guohua Electric Appliance Co., Ltd.); centrifuge (5810R, Eppendorf); mass spectrometry (API4000, Applied Biosystems, USA); liquid chromatography (LC-30AD, Shimadzu); sample injector (CTC Analytics AG System, CTC).
Experimental process: 25 μg/mL alamethicin (Aldrich), 5 mM magnesium chloride and 0.5 mg/mL microsome (XENOTECH) were added to 100 mM phosphate buffer to obtain a coenzyme-free reaction solution. A portion of the coenzyme-free reaction solution was added with 1 mM reductive nicotinamide adenine dinucleotide phosphate (Aldrich) and 5 mM uridine diphosphate glucuronic acid (Aldrich) to obtain a coenzyme-containing reaction solution. The working solution of the compound of the present invention was added to the two reaction solutions so that the final concentration of the compound was 2 μM. Immediately after mixing well, 50 μL of the solution were taken out as the 0 minute sample, and 50 μL of the remaining sample were taken out after incubating at 37° C. for 30 minutes. All the samples taken out were immediately processed to precipitate protein, and centrifuged to obtain a supernate for the determination of the compound concentration by LC/MS/MS.

[6] = Stability in monkey plasma; type: in vitro ADME
Text: (§1) Experimental instruments: thermostatic shaker (SHA-B, Guohua Electric Appliance Co., Ltd.); centrifuge (5810R, Eppendorf); mass spectrometry (AP4000, Applied Biosystems, USA); liquid chromatography (LC-30AD, Shimadzu); sample injector (CTC Analytics AG System, CTC).
(§2) Test animals: plasma of human (batch number: BRH1343165), rat (batch number: RAT336728), mouse (batch number: MSE280000), dog (batch number: BGL99137) and monkey (batch number: PH-Monkey-20180821) are purchased from Shanghai Sixin Biological Technology Co., Ltd.
(§3) Experimental process: the compound of the present invention was dissolved in an organic solvent to obtain a 1 mM working solution. 3 μL of the working solution were added to 597 μL of pre-incubated human or rat plasma and mixed well. 50 μL of the solution were immediately taken out as the 0 minute sample. The remaining sample was incubated at 37° C., and 50 μL of sample were taken out at 15, 30, 60 and 120 minutes respectively. All the samples taken out were immediately processed to precipitate protein, and centrifuged to obtain a supermate for the determination of the compound concentration by LC/MS/MS.

[7] = Stability in human plasma
Text: as §1, §2, §3

Stability in dog plasma = type: in vitro ADME
Text: as §1, §2, §3

[8] = Stability in plasma, overall conclusion (species not stated); conditions: conclusion in words

Text for Stability in rat plasma: as §1, §2, §3

Structure (SMILES)	solubility at 24 h [1] [µg/mL]	Percentage of the compound remaining in human liver microsome ([2]; with coenzyme) [%]	Percentage of the compound remaining in human liver microsome ([2]; without coenzyme) [%]	Percentage of the compound remaining in dog liver microsome ([3]; with coenzyme) [%]	Percentage of the compound remaining in dog liver microsome ([3]; without coenzyme) [%]	Percentage of the compound remaining in mouse liver microsome ([4]; with coenzyme) [%]	Percentage of the compound remaining in mouse liver microsome ([4]; without coenzyme) [%]	Percentage of the compound remaining in rat liver microsome ([5]; with coenzyme) [%]	Percentage of the compound remaining in rat liver microsome ([5]; without coenzyme) [%]	Percentage of the compound remaining in plasma ([7]; 0 minute) [%]	Percentage of the compound remaining in plasma ([7]; 37° C., 15 minutes) [%]	Percentage of the compound remaining in plasma ([7]; 37° C., 30 minutes) [%]	Percentage of the compound remaining in plasma ([7]; 37° C., 60 minutes) [%]	Percentage of the compound remaining in plasma ([7]; 37° C., 120 minutes) [%]	Percentage of the compound remaining in plasma (Stability in rat plasma; 0 minute) [%]	Percentage of the compound remaining in plasma (Stability in rat plasma; 37° C., 15 minutes) [%]	Percentage of the compound remaining in plasma (Stability in rat plasma; 37° C., 30 minutes) [%]	Percentage of the compound remaining in plasma (Stability in rat plasma; 37° C., 60 minutes) [%]	Percentage of the compound remaining in plasma (Stability in rat plasma; 37° C., 120 minutes) [%]	other results
CCC(=O)OCOc1ccc([N+](=O)[O-])c2cccnc12 [Compound 2, (5-nitroquinolin-8-yloxy)methyl propionate]	72.7 (≈ 263 µM)	0.27	0.16	0.13	0.18	0.10	0.02	0.52	0.45											
CC(C)C(=O)OCOc1ccc([N+](=O)[O-])c2cccnc12 [Compound 3, (5-nitroquinolin-8-yloxy)methyl isobutyrate]	59.2 (≈ 204 µM)	0.05	0.06	0.16	0.19	0.01	0.01	0.08	0.04											
CC(C)(C)C(=O)OCOc1ccc([N+](=O)[O-])c2cccnc12 [Compound 4, (5-nitroquinolin-8-yloxy)methyl pivalate]										100.0	80.9	70.7	54.7	31.4	100.0	0.0	0.0	0.0	0.0	Percentage of the compound remaining in plasma ([6]; 0 minute): 100.0%; Percentage of the compound remaining in plasma ([6]; 37° C., 15 minutes): 4.8%; Percentage of the compound remaining in plasma ([6]; 37° C., 30 minutes): 0.3%; Percentage of the compound remaining in plasma ([6]; 37° C., 60 minutes): 0.0%; Percentage of the compound remaining in plasma ([6]; 37° C., 120 minutes): 0.0%; Percentage of the compound remaining in plasma (Stability in dog plasma; 0 minute): 100.0%; Percentage of the compound remaining in plasma (Stability in dog plasma; 37° C., 15 minutes): 80.0%; Percentage of the compound remaining in plasma (Stability in dog plasma; 37° C., 30 minutes): 56.3%; Percentage of the compound remaining in plasma (Stability in dog plasma; 37° C., 60 minutes): 32.7%; Percentage of the compound remaining in plasma (Stability in dog plasma; 37° C., 120 minutes): 18.2%
CCCOC(=O)N1CCC[C@H]1C(=O)OCOc1ccc([N+](=O)[O-])c2cccnc12 [Compound 18, (S)-2-(5-nitroquinolin-8-yloxy)methyl 1-propyl pyrrolidine-1,2-dicarboxylate]	132 (≈ 328 µM)	2.65	5.06	0.14	1.40	0.26	0.00	0.06	4.63											water solubility compared with nitroxoline [1]: increased by several times
CC(=O)OC(C)Oc1ccc([N+](=O)[O-])c2cccnc12 (stereo not drawn) [Compound 47, 1-(5-nitroquinolin-8-yloxy)ethyl acetate]	285	0.03	0.02	0.01	0.02	0.04	0.04	0.01	0.02											
CC(OC(=O)C(C)C)Oc1ccc([N+](=O)[O-])c2cccnc12 (stereo not drawn) [Compound 49, 1-(5-nitroquinolin-8-yloxy)ethyl isobutyrate]	105 (≈ 344 µM)	0.03	0.03	0.01	0.01	0.01	0.03	0.01	0.03											
COC(=O)[C@H](Cc1ccccc1)NC(=O)OCOc1ccc([N+](=O)[O-])c2cccnc12 [Compound 58, methyl (S)-2-(((5-nitroquinolin-8-yloxy)methoxy)formamido)-3-phenylpropionate]										100.0	95.2	83.6	60.9	21.6	100.0	0.0	0.0	0.0	0.0	stability in plasma [8]: high stability; Percentage of the compound remaining in plasma (Stability in dog plasma; 0 minute): 100.0%; Percentage of the compound remaining in plasma (Stability in dog plasma; 37° C., 15 minutes): 96.3%; Percentage of the compound remaining in plasma (Stability in dog plasma; 37° C., 30 minutes): 90.4%; Percentage of the compound remaining in plasma (Stability in dog plasma; 37° C., 60 minutes): 74.4%; Percentage of the compound remaining in plasma (Stability in dog plasma; 37° C., 120 minutes): 49.8%
C[C@@H]1CN(C(=O)OCOc2ccc([N+](=O)[O-])c3cccnc23)C[C@H](C)O1 [Compound 59, (2S,6R)-(5-nitroquinolin-8-yloxy)methyl 2,6-dimethylmorpholine-4-carboxylate]										100.0	102.3	100.9	103.1	100.3	100.0	95.8	94.1	92.4	92.4	stability in plasma [8]: high stability; Percentage of the compound remaining in plasma (Stability in dog plasma; 0 minute): 100.0%; Percentage of the compound remaining in plasma (Stability in dog plasma; 37° C., 15 minutes): 96.7%; Percentage of the compound remaining in plasma (Stability in dog plasma; 37° C., 30 minutes): 95.0%; Percentage of the compound remaining in plasma (Stability in dog plasma; 37° C., 60 minutes): 102.8%; Percentage of the compound remaining in plasma (Stability in dog plasma; 37° C., 120 minutes): 99.9%
CC1CN(C(=O)OCOc2ccc([N+](=O)[O-])c3cccnc23)CCO1 (stereo not drawn) [Compound 62, (5-nitroquinolin-8-yloxy)methyl 2-methylmorpholine-4-carboxylate]										100.0	95.4	101.8	99.7	92.7	100.0	92.4	97.3	95.8	89.0	stability in plasma [8]: high stability
CC(=O)N(C)CC(=O)OCc1cccnc1N(C)C(=O)OCOc1ccc([N+](=O)[O-])c2cccnc12 [Compound 65]	965 (≈ 1940 µM)	29.88	39.15	65.08	93.36	0.72	2.63	4.33	59.38											water solubility compared with nitroxoline [1]: increased by several times
CN(CC(=O)OCc1cccnc1N(C)C(=O)OCOc1ccc([N+](=O)[O-])c2cccnc12)C(=O)C(C)(C)C [Compound 66]	540 (≈ 1000 µM)	9.77	74.45	13.05	67.43	0.02	4.32	0.06	12.10											water solubility compared with nitroxoline [1]: increased by several times
CN(C)C(=O)Oc1ccc([N+](=O)[O-])c2cccnc12 [Compound 78, 5-nitroquinolin-8-yl dimethylcarbamate]	226 (≈ 863 µM)	14.46	90.37	0.36	98.41	0.00	100.18	2.40	91.50											
